“And” between values parts separate entries of the source, which are not always exact repeats. Equal entries are not always repeated.
Target: T1, Cathepsin K (Oryctolagus cuniculus, UniProt P43236)
T1 sequence (P43236 whole entry): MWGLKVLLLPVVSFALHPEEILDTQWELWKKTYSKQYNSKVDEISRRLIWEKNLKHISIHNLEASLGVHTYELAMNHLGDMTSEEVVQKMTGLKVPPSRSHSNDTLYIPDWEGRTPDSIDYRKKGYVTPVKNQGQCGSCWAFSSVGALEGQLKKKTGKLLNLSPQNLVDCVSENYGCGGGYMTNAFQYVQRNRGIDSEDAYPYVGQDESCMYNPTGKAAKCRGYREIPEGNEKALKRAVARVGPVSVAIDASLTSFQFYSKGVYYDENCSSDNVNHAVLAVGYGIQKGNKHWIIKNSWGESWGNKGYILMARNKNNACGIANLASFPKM
Test: In Vitro Enzyme Inhibition Assay and Bone-Resorption Assay
Details: pH 5.5; 22 °C
Procedure: Prior to the addition of substrate, different concentrations of the inhibitor ranging from 100 uM to 0.2 nM were preincubated for 15 min with enzyme to allow the establishment of the enzyme-inhibitor complex. The proteolytic cleavage of N-acyl aminocoumarins by cathepsins was conducted in 96-well plate format and the plate read using a Spectramax (Molecular Devices) plate reader. The excitation wavelength was 355 nm and the emission wavelength was 460 nm for peptidyl-AMC substrates. The percent inhibition of the reaction was calculated from a control reaction containing only vehicle. IC50 curves were generated by fitting percent inhibition values to a four parameter logistic model (SOFTMAX PRO, Molecular Devices). EC50/IC50 values were obtained from bone-resorption assay. The long bones were aseptically isolated from a 10-day-old New Zealand White […] (Covance Research Products, Denver, PA) and the soft tissue removed.

SMILES | EC50
N#CCNC(=O)[C@@H]1CC(F)(F)CC[C@H]1c1cnccc1-c1ccc(SCF)cc1 [(1R,2R)-N-(cyanomethyl)-5,5-difluoro-2-(4-{4-[(fluoromethyl)sulfanyl]phenyl}pyridin-3-yl)cyclohexane-1-carboxamide] | 58 nM
CSc1ccc(-c2c([C@@H]3CCC(F)(F)C[C@H]3C(=O)NCC#N)cc[nH]c2=O)cc1 [(1R,2R)-N-(cyanomethyl)-5,5-difluoro-2-{3-[4-(methylsulfanyl)phenyl]-2-oxo-1,2-dihydropyridin-4-yl}cyclohexane-1-carboxamide] | 84 nM
CSc1ccc(-c2cn(C)nc2[C@@H]2CCC(F)(F)C[C@H]2C(=O)NCC#N)cc1 | 41 nM
CSc1ccc(-c2ccccc2[C@@H]2CCC(F)(F)C[C@H]2C(=O)NCC#N)cc1 [(1R,2R)-N-(cyanomethyl)-5,5-difluoro-2-{2-[4-(methylsulfanyl)phenyl]phenyl}cyclohexane-1-carboxamide] | 16 nM and 38 nM
CSc1ccc(-c2c[n+]([O-])ccc2[C@@H]2CCC(F)(F)C[C@H]2C(=O)NCC#N)cc1 [4-[(1R,2R)-2-[(cyanomethyl)carbamoyl]-4,4-difluorocyclohexyl]-3-[4-(methylsulfanyl)phenyl]-1-pyridin-1-olate] | 75 nM

Next, values leading:

EC50 | SMILES
17 nM | CSc1ccc(-c2nc(C)sc2[C@@H]2CCC(F)(F)C[C@H]2C(=O)NCC#N)cc1 [(1R,2R)-N-(cyanomethyl)-5,5-difluoro-2-{2-methyl-4-[4-(methylsulfanyl)phenyl]-1,3-thiazol-5-yl}cyclohexane-1-carboxamide]
33 nM | CSc1ccc(-c2c([C@@H]3CCC(F)(F)C[C@H]3C(=O)NCC#N)nnn2Cc2ccccc2)cc1 [(1R,2R)-2-{1-benzyl-5-[4-(methylsulfanyl)phenyl]-1H-1,2,3-triazol-4-yl}-N-(cyanomethyl)-5,5-difluorocyclohexane-1-carboxamide]
20 nM | CSc1ccc(-c2c[nH]c(=O)cc2[C@@H]2CCC(F)(F)C[C@H]2C(=O)NCC#N)cc1 [(1R,2R)-N-(cyanomethyl)-5,5-difluoro-2-{5-[4-(methylsulfanyl)phenyl]-2-oxo-1,2-dihydropyridin-4-yl}cyclohexane-1-carboxamide]
18 nM | CSc1ccc(-c2cnccc2[C@@H]2CCC(F)(F)C[C@H]2C(=O)NCC#N)cc1 [(1R,2R)-N-(cyanomethyl)-5,5-difluoro-2-{3-[4-(methylsulfanyl)phenyl]pyridin-4-yl}cyclohexane-1-carboxamide]
10 nM | CSc1ccc(-c2ncccc2[C@@H]2CCC(F)(F)C[C@H]2C(=O)NCC#N)cc1 [(1R,2R)-N-(cyanomethyl)-5,5-difluoro-2-{2-[4-(methylsulfanyl)phenyl]pyridin-3-yl}cyclohexane-1-carboxamide]

Reference: BindingDB's records for doi:10.1016/j.bmcl.2007.03.028 (Merck Frosst Centre For Therapeutic Research, 2007)
